The source of these data is PMC12704579, “New Anticancer 4‐Aryldihydropyrimidinone‐5‐Carboxylates Targeting Hsp90” (Chemical Biology & Drug Design, 2025).

Values after ≈ are worked out from the molar mass of the structure shown. Values joined by “and” are separate entries in the source; they are usually repeats but may differ in a detail not shown here. Equal entries are not always repeated. Where two headings read alike, the source gives them in different places.

The target of data set [1] is T1, hERG channel (Homo sapiens, UniProt Q12809).
T1 construct: Cyprotex Discovery Ltd., UK
Description: hERG channel cardiotoxicity assay (Cyprotex). The method, then: (§1) All the selected analogues were calculated to be compliant with the Lipinski rule‐of‐five guidelines for oral bioavailability. Furthermore, in vitro ADME (absorption, distribution, metabolism, excretion) properties were assessed as an outsourced service (Cyprotex Discovery Ltd., UK; part of the EvoTec Group); profiling membrane permeability (Caco‐2 cell model), hERG channel cardiotoxicity, human microsomal stability and turbidometric solubility (Table 4).
In general terms: Block of hERG is tested as a sign of cardiac risk.

The test system of data set [2] is MCF-7 cells. Description: Colony forming assay, MCF-7. It counts as cell-based, human. The settings on record: for IC50: Homo sapiens, MCF7, 168 h, 7 days; for % Clonogenicity (MCF-7, 10 μM): percentage of survival colonies, 7-day incubation, standardised to DMSO control. As to the method:
(§2) Human Embryonic Kidney cells (HEK‐293) and human breast cancer cells (MCF‐7, MDA‐MB‐231 and HCC1954) were cultured in complete growth media: […] 1X (Gibco); 10% v/v Fetal Bovine Serum (FBS, Sigma Dorset UK) and L‐glutamine (2 mM, Invitrogen). SW‐480‐WT cells were maintained in selective media made up of Dulbecco's Modified Eagle Medium (Gibco), enriched with […] of Geneticin Selective Antibiotic (G418 Sulfate; Gibco, Thermo Fisher). Cells were incubated at a 5% CO2 atmosphere at 37°C.
Cells were seeded in a 12‐well plate at 400 cells per well. One hour after the seeding of the cells, compounds (1 mM, 100 μM, 10 μM, 1 μM, 100 nM, 10 nM) or vehicle were added into the wells in triplicate (DMSO vehicle 0.1% and 1%). After 7 days, colonies were stained with 350 μL of crystal violet solution, incubated for 30 min at room temperature, then wells were washed in water and dried. At least the best 3 independent experiments out of 5 independent repeats were used to perform the statistical analysis of the results. Colonies were counted by GelCount Colony Counter (Oxford Optronix Ltd.) using the GelCount 1.1.8.0 software. Assay end points were normalised to 0% (DMSO only) and fitted to a semi‐log plot using at least n = 3 technical replicates (n = 6 for DMSO control and N = 3 independent replicates). The curve fit was performed using GraphPad Prism.
(§3) In view of previous reports on Hsp90 inhibitors and their effects on cancer cell viability (Eachkoti et al. [2014]) and clonogenicity (Kinzel et al. [2016]), new compounds were tested for inhibition of cell viability within both non‐tumourigenic (HEK‐293) and breast cancer cell lines (MDA‐MB‐231) at a fixed concentration of 10 μM. The well‐established CellTiter‐Blue endpoint assay was used to assess cell viability. New compounds were also assessed in a colony forming assay (MCF‐7 breast cancer cell line), used as an efficacy screening to provide an indication of the inhibition of clonogenicity for these small molecules (Table 1).

Data set [3] is described as follows: CellTiter-Blue cell viability assay, HEK-293 (24 h). The settings on record: human, HEK-293 cells, CellTiter-Blue, 24 h incubation, 10 μM test compound, standardised to DMSO control. It counts as cell-based, human. The method, then:
as §2
(§4) Cells were cultured in 96‐well plates in 90 μL at a seeding density of 1 × 10^6 cells per well. Compound samples were prepared at different concentrations (1 mM, 100 μM, 10 μM, 1 μM, 100 nM, 10 nM) and 10 μL of each concentration was seeded in each well. Two different negative controls were used: DMSO 0.01% and 0.001%. Paclitaxel (30% w/v) was used as a positive control. Cells were treated for 24 h after which 20 μL of CellTitre‐Blue reagent (Promega, Southampton, UK) was added and incubated for 2 h at 37°C in 5% CO2. Fluorescence was measured at 560/590 nm on a Fluorostar Optima plate reader (BMG Labtech, Bucks, UK). Assay end points were normalised to 0% (DMSO only) and fitted to a semilog plot using at least n = 3 technical replicates (n = 6 for DMSO control and paclitaxel control) and N = 3 independent replicates. The curve fit was performed using the GraphPad Prism software and the standard Hill equation.
as §3
A general note: Alamar Blue is a resazurin reagent that responds to reducing activity.

Data set [4] relates to HEK-293 cells. The description is as above. It counts as cell-based, human. The settings on record: for GI50: Homo sapiens, HEK293, 24 h incubation time. The method, then:
as §2, §4, §3

Data set [5] can be described thus: Turbidometric solubility (Cyprotex). It counts as physicochemical. The conditions noted are these: kinetic from dmso stock. As to the method:
as §1

The subject of data set [6] is Caco-2 cell model. In words: Caco-2 membrane permeability (Cyprotex). It counts as in vitro ADME. As to the method: as §1
(Caco-2 cells form a polarised layer with tight junctions and transporters.)

Data set [7] is described as follows: Caco-2 membrane permeability (Cyprotex). It counts as in vitro ADME. The settings on record: human, Caco-2. The method, then:
as §1

For data set [8], the target named is T2, Recombinant human Hsp90 alpha protein (Homo sapiens, UniProt P07900).
T2 construct: human full‐length protein, expressed in Escherichia coli; His tag (C); purchased Abcam ab80369; host or cells: Escherichia coli
Description: Transcreener ADP FP Hsp90 ATPase assay. The conditions noted are these: Recombinant human HSP90, 100 μM ATP; read-out: ATPase assay on rh-Hsp90 IC50. It counts as biochemical. The method, then: Transcreener ADP (cat. no. 3004‐1K) and ADP2 (cat. no. 3010‐1K) FP assay kits were obtained from Bellbrook Laboratories. Recombinant human Hsp90 alpha protein (active), human full‐length protein, expressed in Escherichia coli with > 90% purity and C‐terminus His tag, was purchased from Abcam (ab80369). All FP assays were carried out in black, 384‐well, low‐volume, polystyrene nonbinding microplates from Corning Life Sciences. All basic buffer components were obtained from Sigma‐Aldrich Chemical Co. 17‐AAG (Figure 1) was obtained from Abcam. Using the Transcreener ADP FP kit, the conditions for the recombinant human Hsp90 ATPase reaction were 50 mM HEPES (pH 7.4), 20 mM KCl, 2 mM EGTA, 4 mM MgCl2, and 0.01% Brij‐35 in a 10‐μL total assay volume. The final assay concentration of ATP was 100 μM for Hsp90. Due to the relatively low level of ATPase activity compared with other enzymes, the plate was incubated at 37°C and run over 1, 2 and 3 h time points. The reaction was stopped, and the ADP was detected by adding 10 μL of 50 mM HEPES (pH 7.4), 400 mM NaCl, 20 mM EDTA, 0.01% Brij35, 75 μg/mL anti‐ADP monoclonal antibody, and 4 nM ADP far red tracer. The plate was sealed, centrifuged at 600 g for 1 min, and left at room temperature for 1 h. FP readings for the Hsp90 ATPase Transcreener assays were performed on a Clariostar plate reader ([…]). A blank mP signal composed of protein, antibody, labelled ADP, but no ATP substrate gave similar mP values to those seen in the no‐protein controls. The upper limit of the assay window was defined by a no‐protein control, and the mP in the presence of heat shock protein was subtracted from this control to generate a change in polarisation (ΔmP), which was plotted on the activity graphs. Therefore, the data take into account the spontaneous hydrolysis of ATP. Each value is the mean of triplicate determinations with standard deviations (SD) shown. IC50 values were calculated using GraphPad Prism software with the nonlinear regression curve fitted to the log (inhibitor concentration) against the raw mP values on the linear portion of the standard curve.

Where [9] appears, read: read-out: Solubility - estimated precipitation range, Calc. mid-range.
Where [10] appears, read: read-out: Solubility - estimated precipitation range, Lower-bound.
Setting [11] is: read-out: Solubility - estimated precipitation range, Upper-bound.

T1 sequence (Q12809 whole entry): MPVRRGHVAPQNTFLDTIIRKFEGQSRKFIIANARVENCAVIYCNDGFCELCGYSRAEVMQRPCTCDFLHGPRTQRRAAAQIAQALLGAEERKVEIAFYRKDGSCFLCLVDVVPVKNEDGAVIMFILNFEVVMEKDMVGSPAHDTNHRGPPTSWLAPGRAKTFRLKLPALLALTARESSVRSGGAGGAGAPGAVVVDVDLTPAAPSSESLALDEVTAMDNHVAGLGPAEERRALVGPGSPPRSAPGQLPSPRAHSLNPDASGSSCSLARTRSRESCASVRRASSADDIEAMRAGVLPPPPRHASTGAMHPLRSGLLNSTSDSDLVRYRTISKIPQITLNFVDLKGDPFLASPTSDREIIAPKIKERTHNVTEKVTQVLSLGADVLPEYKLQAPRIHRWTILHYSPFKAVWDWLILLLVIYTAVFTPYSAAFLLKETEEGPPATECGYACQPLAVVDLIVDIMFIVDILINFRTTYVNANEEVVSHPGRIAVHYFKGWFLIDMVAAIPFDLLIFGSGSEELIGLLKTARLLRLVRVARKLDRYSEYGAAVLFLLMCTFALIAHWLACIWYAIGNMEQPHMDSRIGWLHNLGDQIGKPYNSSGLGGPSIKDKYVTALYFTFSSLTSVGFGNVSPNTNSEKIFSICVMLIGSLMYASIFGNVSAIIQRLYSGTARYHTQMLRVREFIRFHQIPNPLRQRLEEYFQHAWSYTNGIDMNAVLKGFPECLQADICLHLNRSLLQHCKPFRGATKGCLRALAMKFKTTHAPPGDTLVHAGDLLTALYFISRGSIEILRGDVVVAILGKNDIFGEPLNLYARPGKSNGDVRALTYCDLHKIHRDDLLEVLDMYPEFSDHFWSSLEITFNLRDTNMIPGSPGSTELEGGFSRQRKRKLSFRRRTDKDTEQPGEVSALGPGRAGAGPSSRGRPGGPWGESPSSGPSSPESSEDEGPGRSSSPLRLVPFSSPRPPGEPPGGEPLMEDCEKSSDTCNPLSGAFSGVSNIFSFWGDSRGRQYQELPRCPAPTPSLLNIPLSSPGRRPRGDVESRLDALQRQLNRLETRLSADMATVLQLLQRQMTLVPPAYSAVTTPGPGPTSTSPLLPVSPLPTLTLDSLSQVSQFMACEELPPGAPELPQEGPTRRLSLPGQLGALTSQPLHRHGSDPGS

The IC50 is the midpoint of a concentration-inhibition curve. One may read the viability as the share of living cells, or the viability signal relative to a control. Broadly, the GI50 is the concentration that inhibits growth by half. A word on the solubility: it is how much of the substance goes into solution per volume. By efflux ratio is commonly meant the permeability from basolateral to apical divided by that in the opposite direction, in the common usage. With `COc1ccc(C2NC(=O)NC(C)=C2C(=O)OCc2ccc3c(c2)OCO3)c(F)c1` (centres unmarked) [Compound 5d, Benzo[d][1,3]dioxol‐5‐ylmethyl‐4‐(2‐Fluoro‐4‐Methoxyphenyl)‐6‐Methyl‐2‐Oxo‐1,2,3,4‐Tetrahydropyrimidine‐5‐Carboxylate], the IC50 in data set [1] is over 25 µM; in data set [2], 0.29 µM; in data set [8], 3.25 µM. The “% Clonogenicity (MCF-7, 10 μM)” value in data set [2] is 49.75% and 49.75 ± 4.35%. For the same compound, the viability at 24 h, 10 µM in data set [3] is 99.9 ± 4.53%. Besides, the GI50 in data set [4] came to 92.4 µM. Moreover, the solubility in data set [5] (setting [9]) is 3.75 µM (≈ 1.55 µg/mL); in data set [5] (setting [10]), 1 µM (≈ 0.414 µg/mL); in data set [5] (setting [11]), 6.5 µM (≈ 2.69 µg/mL). Also, the “Caco-2 permeability Efflux ratio” value in data set [6] stood at 2.26. Moreover, the efflux ratio in data set [7] was over 2.

Turning to `COc1ccc(COC(=O)C2=C(C)NC(=O)NC2c2ccc(Cl)cc2)cc1C` (centres unmarked) [Compound 5e, 4‐Methoxy‐3‐Methylbenzyl‐4‐(4‐Chlorophenyl)‐6‐Methyl‐2‐Oxo‐1,2,3,4‐Tetrahydropyrimidine‐5‐Carboxylate], the figures for the IC50 in data set [1], in data set [2] and in data set [8] were over 25 µM, 0.91 µM and 6.4 µM, respectively. Further, the “% Clonogenicity (MCF-7, 10 μM)” value in data set [2] is listed as 59.96 ± 1.95%. The viability at 24 h, 10 µM in data set [3] was 82%. In addition, the “% Viability (HEK-293, 10 μM)” value in data set [4] (CellTiter-Blue, 24 h incubation, 10 μM test compound, standardised to DMSO control, 10 µM) is 82.07 ± 1.28%. Also, the GI50 in data set [4] was determined as 86.3 µM. Moreover, the solubility is 65 µM (≈ 26.1 µg/mL) in data set [5] (setting [9]), 30 µM (≈ 12 µg/mL) in data set [5] (setting [10]) and 100 µM (≈ 40.1 µg/mL) in data set [5] (setting [11]). Besides, the “Caco-2 permeability Efflux ratio” value in data set [6] is on record as 2.74. Also, the efflux ratio in data set [7] was over 2.
